# Measured values published in patent publication US7807688B2, “Tri-heterocyclic compounds and a pharmaceutical comprising them as an active ingredient” (Ono Pharmaceutical Co., Ltd., priority 2000, dated 2010).
# Test system: male SD rats
# Assay: Measurement of antianxiety activity using the elevated plus-maze
# Format: in vivo, rat
# Conditions: 3 and 10 mg/kg, 30 minutes after administration, 5 minutes period
# Description: Two arms (open and closed) of equal width and length (50 cm×10 cm), which crossed at a right angle to form a plus maze, were elevated to a height 50 cm above the ground level. […] Lighting on both ends of the open arm was maintained at constant illumination. Thirty minutes after administration of various doses of test-compounds (5 mL/kg), male SD rats were placed in the center of the plus maze. The time spent(s) in the open arms and the number of entries into the respective arms were measured within a 5 minutes period. The investigation personnel for measuring the indexes positioned at a fixed location during the course of the experiment.
structure (smiles),measurement,setting,value
"CCC(CC)Nc1c2c(nc3c(-c4ccc(OC)cc4Cl)c(C)nn13)CCC2.Cl [Example 2(78), 8-(3-pentylamino)-2-methyl-3-(2-chloro-4-methoxyphenyl)-6,7-dihydro-5H-cyclopenta[d]pyrazolo[1,5-a]pyrimidine hydrochloride]",time spent in the open arms,FIG. 1,extend significantly
same,number of entries into the open arms,FIG. 2,increased significantly
